Usually mortality stands for the share of the test organisms that died.

These results are taken from patent US4814340A, “1,4-diaryl alkane derivatives having insecticidal and acaricidal activity” (priority 1982, dated 1989).

The subject of data set [1] is common cutworm (third-instar larvae). The data set can be described thus: Test 1 (Effect on Common Cutworm). It counts as in vivo. The note with it: Spodoptera litura. The protocol:
(§1) Compounds (a) through (g) described below were tested as comparative compounds in the same manner as the compounds of the present invention. All the tests were doubly carried out. Namely, each result was expressed by an average value of two data.
The emulsifiable concentrate of the test compound, prepared according to the method described in Formulation Example 1, was diluted with water to a specified concentration. Sweet potato leaves were sufficiently immersed in the dilution. The sweet potato leaves were dried and placed in a plastic cup having a diameter of 10 cm, and 10 third-instar larvae of common cutworm were set free in each cup. 48 hours after, the numbers of killed and living larvae were counted and the mortality was calculated.

A further data set relates to yearling carps. As to the kind of experiment: Test 5 (Fish Toxicity). It counts as in vivo, carp. The protocol:
as §1
A water tank having a width of 60 cm, a length of 30 cm and a height of 40 cm was filled with water, and 10 yearling carps having a body length of about 5 cm were set free in the tank and adapted to the environment in the tank. An acetone solution of a test compound was applied into water so as to become a concentration of 1 or 0.1 ppm in water by adding said acetone solution at a rate of one part by volume per 100 parts by volume of water. 48 hours after, the number of killed and living carps was counted and the effect of a test compound on carps was examined.

The subject of data set [2] is green rice leafhopper (female adults). The data set can be described thus: Test 2 (Effect on Green Rice Leafhopper). In kind it is in vivo. The note with it: Nephotettix cincticeps, 48 hours, female adults, read-out: Mortality (%). The protocol:
as §1
Four or five seedlings of paddy rice with three leaves were bundled, and thereon the same dilution of the emulsifiable concentrate as used in Test 1 was sprayed in an amount of 3 ml. The bundle was dried and covered with a metal net cylinder, and 10 female adults of green rice leafhopper were set free in the cylinder. 48 hours after, the number of killed adults was counted.

Setting [3] is: 20 ppm, 48 hours, third-instar larvae, read-out: Mortality (%).
Where [4] appears, read: 100 ppm, 48 hours, third-instar larvae, read-out: Mortality (%).

Structures can show the parent of a compound that is named as a salt. Where two headings read alike, the source gives them in different places.

Consider `CNC(=O)ON=C(C)SC` [(d), Methomyl, reference compound], for which, in data set [1] (48 h), the mortality at 20 ppm was determined as 80% and the mortality at 100 ppm was 100%.

Take `Oc1c(Cl)c(Cl)c(Cl)c(Cl)c1Cl` [(f), PCP sodium salt, reference compound]: the “Mortality(%) 48 Hours After” value in the data set on yearling carps (0.1 ppm in water) was 55%; in the data set with yearling carps (1 ppm in water) it was 100%.

Consider `CC(C)(CCCc1cccc(Oc2ccccc2)c1)c1cccc(C(F)(F)F)c1` [Compound 2, 1-(3-phenoxyphenyl)-4-(3-trifluoromethylphenyl)-4-methylpentane], for which, in data set [2], the mortality at 20 ppm is 80% and the mortality at 100 ppm was determined as 100%.

Consider `CCOc1ccc(C(C)(C)CCCc2ccc(F)c(Oc3ccccc3)c2)cc1` [Compound 3, 1-(3-phenoxy-4-fluorophenyl)-4-(4-ethoxyphenyl)-4-methylpentane], for which the mortality at 20 ppm in data set [2] and in data set [1] (setting [3]) was 100% throughout. The mortality at 100 ppm in data set [2] and in data set [1] (setting [4]) was 100% each time.

For `COc1ccc(C(C)(C)CCCc2cccc(Oc3ccccc3)c2)cc1` [Compound 5, 1-(3-phenoxyphenyl)-4-(4-methoxyphenyl)-4-methylpentane], in the data set with yearling carps (0.1 ppm in water), the “Mortality(%) 48 Hours After” value worked out at 0%. Besides, the “Mortality(%) 48 Hours After” value with yearling carps (1 ppm in water) turned out to be 0%. In addition, in data set [2], the mortality at 20 ppm worked out at 100% and the mortality at 100 ppm is 100%.

On to `CCC(C)(CCCc1cccc(Oc2ccccc2)c1)c1ccc(Cl)cc1` (stereo not drawn) [Compound 7, 1-(3-phenoxyphenyl)-4-(4-chlorophenyl)-4-methylhexane], for which, in data set [2], the mortality at 20 ppm turned out to be 65% and the mortality at 100 ppm is 100%.

With `CCOc1ccc(C(C)(C)CCCc2cccc(C(=O)c3ccccc3)c2)cc1Br` [Compound 13, 1-(3-benzoylphenyl)-4-(3-bromo-4-ethoxyphenyl)-4-methylpentane], in data set [2], the mortality at 20 ppm stood at 40% and the mortality at 100 ppm was determined as 100%.

On to `CCOc1ccc(C(C)(C)CCCc2cccc(Cc3ccccc3)c2)cc1` [Compound 14, 1-(3-benzylphenyl)-4-(4-ethoxyphenyl)-4-methylpentane], for which, in data set [2], the mortality at 20 ppm came out at 50% and the mortality at 100 ppm came out at 90%.

On to `CCOc1ccc(C(C)(C)CCC(C#N)c2cccc(Oc3ccccc3)c2)cc1` (stereo not drawn) [Compound 15, 1-(3-Phenoxyphenyl)-1-cyano-4-(4-ethoxyphenyl)-4-methylpentane], for which, in data set [2], the mortality at 20 ppm was determined as 70% and the mortality at 100 ppm came out at 95%.

For the compound `CC(C)(CCCc1cccc(Oc2ccccc2)c1)c1ccc2ccccc2c1` [Compound 18, 1-(3-Phenoxyphenyl)-4-(2-naphthyl)-4-methylpentane], the “Mortality(%) 48 Hours After” value in the data set on yearling carps (0.1 ppm in water) amounted to 0%. The “Mortality(%) 48 Hours After” value with yearling carps (1 ppm in water) was 0%. In addition, in data set [2], the mortality at 20 ppm was determined as 100% and the mortality at 100 ppm is 100%.

As to `CC(C)(CCCc1cccc(Oc2ccccc2)c1)c1cccc(Cl)c1` [Compound 21], the “Mortality(%) 48 Hours After” value with yearling carps (0.1 ppm in water) was 0%. For the same compound, the “Mortality(%) 48 Hours After” value with yearling carps (1 ppm in water) is recorded as 0%. Also, in data set [2], the mortality at 20 ppm was determined as 100% and the mortality at 100 ppm is 100%.

Consider `COc1ccc(C(C)(C)CCCc2cccc(Oc3ccccc3)c2)cc1OC` [Compound 22], for which, in data set [2], the mortality at 20 ppm is 50% and the mortality at 100 ppm was 95%.

Turning to `CCC(CCCc1cccc(Oc2ccccc2)c1)c1ccc(Cl)cc1` (stereo not drawn) [Compound 23], the “Mortality(%) 48 Hours After” value with yearling carps (0.1 ppm in water) is 0%. Besides, the “Mortality(%) 48 Hours After” value in the data set with yearling carps (1 ppm in water) came out at 0%. For the same compound, in data set [2], the mortality at 20 ppm amounted to 75% and the mortality at 100 ppm came out at 100%.

As for `CC(C)(CCCc1cccc(Oc2ccccc2)c1)c1ccc(OC(F)(F)C(Cl)Cl)cc1` [Compound 25], in data set [2], the mortality at 20 ppm came out at 90% and the mortality at 100 ppm was found to be 100%.

Turning to `CC(C)(CCCc1cccc(Oc2ccccc2)c1)c1ccc(Cl)c(Cl)c1` [Compound 26], in the data set with yearling carps (0.1 ppm in water), the “Mortality(%) 48 Hours After” value was 0%. Moreover, the “Mortality(%) 48 Hours After” value in the data set with yearling carps (1 ppm in water) amounted to 0%. For the same compound, in data set [2], the mortality at 20 ppm was 50% and the mortality at 100 ppm was 100%.

Take `CCOc1ccc(C(C)(C)CCCc2cccc(Oc3ccccc3)c2)cc1OCC` [Compound 28]: in data set [2], the mortality at 20 ppm stood at 80% and the mortality at 100 ppm is 100%.

For `CCOc1ccc(C(C)(C)CCCc2cccc(Sc3ccccc3)c2)cc1` [Compound 30], in data set [2], the mortality at 20 ppm worked out at 70% and the mortality at 100 ppm came to 100%.

Take `CC(C)(CCCc1cccc(Oc2ccccc2)c1)c1ccc(OC(F)F)cc1` [Compound 32]: the mortality at 20 ppm in data set [2] and in data set [1] (setting [3]) was 100% each time. The mortality at 100 ppm in data set [2] and in data set [1] (setting [4]) was 100% throughout.

As to `CCCOc1ccc(C(C)(C)CCCc2cccc(Oc3ccccc3)c2)cc1` [Compound 33], the “Mortality(%) 48 Hours After” value in the data set on yearling carps (0.1 ppm in water) is on record as 0%. In addition, the “Mortality(%) 48 Hours After” value in the data set with yearling carps (1 ppm in water) amounted to 0%. Also, in data set [2], the mortality at 20 ppm came out at 100% and the mortality at 100 ppm was found to be 100%.

For the compound `CCOc1ccc(C(C)(C)CCCc2cccc(C(=O)c3ccccc3)c2)cc1` [Compound 34], in data set [2], the mortality at 20 ppm was 50% and the mortality at 100 ppm came out at 100%.

On to `CCOc1ccc(C(C)(C)CCCc2ccc(F)c(Sc3ccccc3)c2)cc1` [Compound 36], for which, in data set [2], the mortality at 20 ppm turned out to be 100% and the mortality at 100 ppm worked out at 100%.

Take `CC(C)(CCCc1cccc(Oc2ccccc2)c1)c1ccc(OC(F)=CCl)cc1` [Compound 37]: the mortality at 20 ppm in data set [1] (setting [3]) is 80%. Moreover, the mortality at 100 ppm in data set [1] (setting [4]) worked out at 100%.

Regarding `CCOc1ccc(C(C)(C)CCCc2cccc(Oc3ccc(Cl)cc3)c2)cc1` [Compound 39], in data set [2], the mortality at 20 ppm was found to be 90% and the mortality at 100 ppm is 100%.

With `CCOc1ccc(C(C)(C)CCCc2cccc(Oc3ccccc3F)c2)cc1` [Compound 42], in data set [2], the mortality at 20 ppm amounted to 100% and the mortality at 100 ppm worked out at 100%.

Turning to `C#CCOc1ccc(C(C)(C)CCCc2cccc(Oc3ccccc3)c2)cc1` [Compound 45], the mortality at 20 ppm in data set [2] and in data set [1] (setting [3]) was 80% throughout. The mortality at 100 ppm in data set [2] and in data set [1] (setting [4]) was 100% in each case.

For the compound `CC(C)(CCCc1cccc(Oc2ccccc2)c1)c1ccc(Oc2ccccc2)cc1` [Compound 46], the mortality at 20 ppm in data set [2] was 100%; in data set [1] (setting [3]) it was 85%. The mortality at 100 ppm in data set [2] and in data set [1] (setting [4]) was 100% each time.

Take `CC(C)(CCCc1cccc(Oc2ccccc2)c1)c1ccc(Br)cc1` [Compound 47]: in data set [2], the mortality at 20 ppm was 75% and the mortality at 100 ppm was determined as 100%.

Turning to `CC(C)C(C)(CCCc1cccc(Oc2ccccc2)c1)c1ccc(Cl)cc1` (stereo not drawn) [Compound 49], in data set [2], the mortality at 20 ppm was 60% and the mortality at 100 ppm came to 100%.

`Clc1ccc(C2(CCCc3cccc(Oc4ccccc4)c3)CC2(Cl)Cl)cc1` (stereo not drawn) [Compound 50, 1-(3-Phenoxyphenyl)-3-[1-(4-chlorophenyl)-2,2-dichlorocyclopropyl]-propane]: in data set [2], the mortality at 20 ppm stood at 50% and the mortality at 100 ppm is 100%.

Turning to `C#CC(CCC(C)(C)c1ccc(OCC)cc1)c1ccc(F)c(Oc2ccccc2)c1` (stereo not drawn) [Compound 51, 1-(3-Phenoxy-4-fluorophenyl)-1-ethynyl-4-(4-ethoxyphenyl)-4-methylpentane], in data set [2], the mortality at 20 ppm was 60% and the mortality at 100 ppm was 90%.

`CC(C)(CCCc1cccc(Oc2ccccc2)c1)c1ccc(C#N)cc1` [Compound 58, 1-(3-Phenoxyphenyl)-4-(4-cyanophenyl)-4-methylpentane]: the mortality at 20 ppm in data set [2] stood at 100%; in data set [1] (setting [3]) it was 80%. Besides, the mortality at 100 ppm in data set [2] and in data set [1] (setting [4]) was 100% in each case.

Turning to `CC(C)=Cc1ccc(C(C)(C)CCCc2cccc(Oc3ccccc3)c2)cc1` [Compound 59], in data set [2], the mortality at 20 ppm is 70% and the mortality at 100 ppm came to 100%.

`CC(C)(CCC(C#N)c1ccc(F)c(Oc2ccccc2)c1)c1ccc(Cl)cc1` (stereo not drawn) [Compound 62, 1-(3-Phenoxy-4-fluorophenyl)-1-cyano-4-(4-chlorophenyl)-4-methylpentane]: in data set [2], the mortality at 20 ppm stood at 45% and the mortality at 100 ppm was found to be 100%.

For the compound `CC(C)(CCCc1cccc(Oc2ccccc2)c1)c1ccc(C=C(Cl)Cl)cc1` [Compound 63], the mortality at 20 ppm in data set [2] worked out at 100%; in data set [1] (setting [3]), 70%. Besides, the mortality at 100 ppm in data set [2] and in data set [1] (setting [4]) was 100% in each case.

As for `CC(C)(CCCc1cccc(Oc2ccccc2)c1)c1ccc(C(=O)OCCF)cc1` [Compound 68], in data set [2], the mortality at 20 ppm amounted to 40% and the mortality at 100 ppm is 80%.

Take `CC(C)(CCCc1cccc(Oc2ccccc2)c1)c1ccc(C(=O)OC(F)(F)C(F)F)cc1` [Compound 69]: in data set [2], the mortality at 20 ppm was 75% and the mortality at 100 ppm is 100%.
